Laboratory results published in publication PMC11121628, “Regulation of T Lymphocyte Functions through Calcium Signaling Modulation by Nootkatone” (International Journal of Molecular Sciences, 2024).

Experiments:
Format in all cases: cell-based
ORAI1 (CRAC channel) = target: T1, ORAI1 (CRAC channel) (Homo sapiens, UniProt Q96D31); test: whole-cell patch clamp of ICRAC in transfected HEK293T cells
T1 construct: human ORAI1 (hORAI1) co-transfected with hSTIM1 in HEK293T cells; with STIM1

KCa3.1 = target: T2, KCa3.1 (Homo sapiens, UniProt O15554); test: whole-cell patch clamp of IKCa3.[…] in stable HEK293T cells; settings: HEK-293T
T2 construct: gene KCNN4
T2 sequence (O15554 whole entry): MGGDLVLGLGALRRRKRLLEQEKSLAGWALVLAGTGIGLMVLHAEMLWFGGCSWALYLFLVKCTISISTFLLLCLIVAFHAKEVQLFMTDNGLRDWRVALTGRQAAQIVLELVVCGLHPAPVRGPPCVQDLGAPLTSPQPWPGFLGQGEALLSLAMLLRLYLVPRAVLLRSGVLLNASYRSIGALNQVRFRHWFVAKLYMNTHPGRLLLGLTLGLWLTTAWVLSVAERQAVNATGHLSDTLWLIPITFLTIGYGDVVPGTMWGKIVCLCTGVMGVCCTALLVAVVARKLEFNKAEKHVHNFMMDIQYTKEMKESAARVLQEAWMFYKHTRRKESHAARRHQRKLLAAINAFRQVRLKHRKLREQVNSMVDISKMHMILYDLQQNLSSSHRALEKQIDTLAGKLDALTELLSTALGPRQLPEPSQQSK

KV1.3 = target: T3, KV1.3 (Homo sapiens, UniProt P22001); test: whole-cell patch clamp of IKV1.[…] in Jurkat T cells
T3 construct: gene KCNA3; KV1.3 current in Jurkat T cells
T3 sequence (P22001 whole entry): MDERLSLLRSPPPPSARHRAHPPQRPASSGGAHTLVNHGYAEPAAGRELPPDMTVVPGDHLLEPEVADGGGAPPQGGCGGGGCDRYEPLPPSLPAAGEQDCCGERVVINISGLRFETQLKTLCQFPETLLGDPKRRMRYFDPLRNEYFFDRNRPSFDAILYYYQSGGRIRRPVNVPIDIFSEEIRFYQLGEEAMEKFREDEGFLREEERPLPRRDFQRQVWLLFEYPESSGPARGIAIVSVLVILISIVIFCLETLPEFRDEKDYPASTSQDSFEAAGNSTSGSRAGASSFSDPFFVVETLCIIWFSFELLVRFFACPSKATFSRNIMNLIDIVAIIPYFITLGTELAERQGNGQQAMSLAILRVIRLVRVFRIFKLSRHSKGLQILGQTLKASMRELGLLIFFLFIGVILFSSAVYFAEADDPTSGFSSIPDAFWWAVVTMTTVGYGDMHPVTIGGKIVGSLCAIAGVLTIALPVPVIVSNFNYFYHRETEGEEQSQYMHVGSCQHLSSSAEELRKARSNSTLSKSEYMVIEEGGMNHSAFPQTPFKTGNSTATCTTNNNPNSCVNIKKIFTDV

T1 sequence (Q96D31 whole entry): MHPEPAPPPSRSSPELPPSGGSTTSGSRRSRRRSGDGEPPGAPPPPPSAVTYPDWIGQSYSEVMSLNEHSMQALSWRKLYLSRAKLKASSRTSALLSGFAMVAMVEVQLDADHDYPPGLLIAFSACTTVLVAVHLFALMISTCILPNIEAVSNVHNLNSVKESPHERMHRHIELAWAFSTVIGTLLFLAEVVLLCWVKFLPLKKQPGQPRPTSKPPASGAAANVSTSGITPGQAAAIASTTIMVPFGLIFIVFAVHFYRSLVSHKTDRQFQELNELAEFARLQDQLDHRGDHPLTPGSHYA
T1 sequence (Q13586 23-685, further chain): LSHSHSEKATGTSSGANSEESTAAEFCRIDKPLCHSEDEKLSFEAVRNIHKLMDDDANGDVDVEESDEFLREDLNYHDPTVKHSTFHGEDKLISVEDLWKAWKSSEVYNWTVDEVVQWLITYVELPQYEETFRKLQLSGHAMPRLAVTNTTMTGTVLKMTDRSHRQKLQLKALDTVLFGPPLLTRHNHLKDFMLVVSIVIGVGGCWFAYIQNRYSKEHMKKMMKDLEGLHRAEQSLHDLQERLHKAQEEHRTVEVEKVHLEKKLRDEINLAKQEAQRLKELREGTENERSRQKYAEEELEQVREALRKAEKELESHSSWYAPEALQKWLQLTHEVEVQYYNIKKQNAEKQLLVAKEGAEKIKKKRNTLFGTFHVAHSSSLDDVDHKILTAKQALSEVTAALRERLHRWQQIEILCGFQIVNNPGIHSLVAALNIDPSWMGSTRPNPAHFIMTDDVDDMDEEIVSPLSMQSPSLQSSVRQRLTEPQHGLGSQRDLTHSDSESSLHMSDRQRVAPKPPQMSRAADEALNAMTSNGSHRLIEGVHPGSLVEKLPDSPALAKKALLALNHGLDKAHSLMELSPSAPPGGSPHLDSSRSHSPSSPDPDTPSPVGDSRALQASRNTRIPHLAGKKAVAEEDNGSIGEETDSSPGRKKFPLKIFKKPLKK

For `C=C(C)[C@@H]1CCC2=CC(=O)C[C@@H](C)[C@]2(C)C1` [nootkatone], the IC50 (ORAI1 (CRAC channel)) was about 12.6 µM, the inhibition at 100 µM (KCa3.1) was about 20% and the IC50 (KV1.3) was 10.8 µM.
